# Source: patent US12116358B2, “Substituted indoles and methods of use thereof” (EPIZYME, INC., priority 2018, dated 2024)
# Columns and labels:
# [1] = test system: multiple myeloma cell lines (t(4;14) and non-t(4;14)); experiment: 14 day LTP assay in multiple myeloma cells; format: cell-based, human; details: FIG. 1 scatter graph
# KMS-34 cells = experiment: 14 day KMS-34 long term proliferation (LTP) assay; details: KMS-34, t(4;14) multiple myeloma cell line; 14-day assay; FIG. 2
# Description: 14 Day KMS-34 Long Term Proliferation (LTP) Assay
# Incubate plates for 96 hrs.
# The final concentration is 1 μm.
# To calculate growth for days 4, 7, 11, and 14:
# 1. Calculate the split factor for day 4 to 7, day 7 to 11, and day 11-14 The split factor is the viable cells/mL on Day X (either 4, 7, or 11) divided by the density the cells are being split back to.
# 2. For growth of cells from day 4 to 7, multiply the day 7 viable cells/mL density by the split factor from day 4.
# 4. For growth of cells from Day 11 to 14, multiply the Day 14 viable cells/mL density by the days 4, 7, and 11 split factors.
# 5. Plot growth on semi-log chart (viable cells/mL on Y axis, in log, and days on X axis).
# From 5 mM to 0.25 μm. […] Mix well by pipetting up and down.
# KMS-11 tumor = experiment: Anti-tumor activity in human myeloma KMS-11 tumor-bearing NOD SCID mice (subcutaneous xenograft); format: in vivo
# Excerpt: Evaluation of the Anti-Tumor Activity of Cpd. […] Based on the tumor volume and body weight, mice were assigned to respective groups such that the average starting tumor size and body weight was the same for each treatment group. […] The tumor cells were routinely subcultured before confluence, not to exceed 4-5 passages. The cells growing in an exponential growth phase were harvested and counted for tumor inoculation. […] The treatment was started when the mean tumor size reached 118 mm^3. Mice were then assigned to groups such that the mean tumor volume was the same for each treatment group and time point. […] Tumor Measurements The measurement of tumor size was conducted twice weekly with a caliper and the tumor volume (mm3) is estimated using the formula: TV=a×b×b/2, where “a” and “b” are long and short diameters of a tumor, respectively. The TVs are used for calculation of the tumor growth inhibition and tumor growth delay. […] The “[…]” and “TVinitial” are the mean tumor volumes on the final day and initial day of dosing. After take down 5 mice of G2 G5 post the final dosing, the remaining mice were maintained for monitoring tumor outgrowth twice weekly. […] Animals showing obvious signs of severe distress and/or pain were humanely sacrificed by carbon dioxide followed by cervical dislocation to ensure death. Samples Collection Tumor samples and plasma were collect at the indicated day. Data Acquisition and Statistical Analysis Data Acquisition: Protocol-required measurements and observations were recorded manually on appropriate forms, or directly on a computerized database. Statistical Analysis: All statistical tests were conducted, and the level of significance was set at 5% or P<0.05. The group means, standard deviation were calculated for all measurement parameters as study designed. Two-way RM ANOVA followed by Tukeys post hoc comparisons of the means. The therapeutic effects of compound as a single agent in the KMS-11 subcutaneous xenograft model were evaluated.
# [2] = G2, 31.25 mg/kg, p.o., BID × 28 days, PG-Day 25
structure (smiles),measurement,setting,value
"CC(=O)N1CCN([C@H]2CCC[C@@H](NC(=O)c3cc4c(F)ccc(C)c4[nH]3)C2)CC1 [Cpd. No. 15, N-((1R,3S)-3-(4-acetylpiperazin-1-yl)cyclohexyl)-4-fluoro-7-methyl-1H-indole-2-carboxamide]",anti-proliferative effects in t(4;14) and non-t(4;14) multiple myeloma cell lines,[1],selective anti-proliferative effects
same,type of response of KMS-34 cells,KMS-34 cells,cytotoxic response
same,Tumor volume (Mean ± SEM),"KMS-11 tumor; G2, 31.25 mg/kg p.o. BID 28 days, PG-D1 (D 7)",119 ± 6 mm3
same,Tumor volume (Mean ± SEM),"KMS-11 tumor; G2, 31.25 mg/kg p.o. BID 28 days, PG-D4 (D 10)",225 ± 21 mm3
same,Tumor volume (Mean ± SEM),"KMS-11 tumor; G2, 31.25 mg/kg p.o. BID 28 days, PG-D7 (D 13)",271 ± 19 mm3
same,Tumor volume (Mean ± SEM),"KMS-11 tumor; G2, 31.25 mg/kg p.o. BID 28 days, PG-D11 (D 17)",408 ± 46 mm3
same,Tumor volume (Mean ± SEM),"KMS-11 tumor; G2, 31.25 mg/kg p.o. BID 28 days, PG-D14 (D 20)",478 ± 54 mm3
same,Tumor volume (Mean ± SEM),"KMS-11 tumor; G2, 31.25 mg/kg p.o. BID 28 days, PG-D18 (D 24)",609 ± 71 mm3
same,Tumor volume (Mean ± SEM),"KMS-11 tumor; G2, 31.25 mg/kg p.o. BID 28 days, PG-D21 (D 27)",686 ± 80 mm3
same,Tumor volume (Mean ± SEM),"KMS-11 tumor; G2, 31.25 mg/kg p.o. BID 28 days, PG-D25 (D 31)",763 ± 97 mm3
same,Tumor volume post the final dosing (Mean ± SEM),"KMS-11 tumor; G2, 31.25 mg/kg p.o. BID 28 days, PG-D28 (D 34)",882 ± 131 mm3
same,Tumor volume post the final dosing (Mean ± SEM),"KMS-11 tumor; G2, 31.25 mg/kg p.o. BID 28 days, PG-D32 (D 38)",1123 ± 149 mm3
same,Tumor volume post the final dosing (Mean ± SEM),"KMS-11 tumor; G2, 31.25 mg/kg p.o. BID 28 days, PG-D35 (D 41)",1499 ± 196 mm3
same,Tumor volume post the final dosing (Mean ± SEM),"KMS-11 tumor; G2, 31.25 mg/kg p.o. BID 28 days, PG-D39 (D 45)",1747 ± 243 mm3
same,Tumor Size at PG-Day 25 (Mean ± SEM),"KMS-11 tumor; G2, 31.25 mg/kg, p.o., BID × 28 days",763 ± 97 mm3
same,TGI,KMS-11 tumor; [2],74%
same,ΔT/ΔC,KMS-11 tumor; [2],26%
same,Tumor volume (Mean ± SEM),"KMS-11 tumor; G3, 62.5 mg/kg p.o. BID 28 days, PG-D1 (D 7)",117 ± 6 mm3
same,Tumor volume (Mean ± SEM),"KMS-11 tumor; G3, 62.5 mg/kg p.o. BID 28 days, PG-D4 (D 10)",178 ± 11 mm3
same,Tumor volume (Mean ± SEM),"KMS-11 tumor; G3, 62.5 mg/kg p.o. BID 28 days, PG-D7 (D 13)",216 ± 11 mm3
same,Tumor volume (Mean ± SEM),"KMS-11 tumor; G3, 62.5 mg/kg p.o. BID 28 days, PG-D11 (D 17)",231 ± 16 mm3
same,Tumor volume (Mean ± SEM),"KMS-11 tumor; G3, 62.5 mg/kg p.o. BID 28 days, PG-D14 (D 20)",184 ± 17 mm3
same,Tumor volume (Mean ± SEM),"KMS-11 tumor; G3, 62.5 mg/kg p.o. BID 28 days, PG-D18 (D 24)",176 ± 22 mm3
same,Tumor volume (Mean ± SEM),"KMS-11 tumor; G3, 62.5 mg/kg p.o. BID 28 days, PG-D21 (D 27)",129 ± 25 mm3
same,Tumor volume (Mean ± SEM),"KMS-11 tumor; G3, 62.5 mg/kg p.o. BID 28 days, PG-D25 (D 31)",115 ± 30 mm3
same,Tumor volume post the final dosing (Mean ± SEM),"KMS-11 tumor; G3, 62.5 mg/kg p.o. BID 28 days, PG-D28 (D 34)",117 ± 36 mm3
same,Tumor volume post the final dosing (Mean ± SEM),"KMS-11 tumor; G3, 62.5 mg/kg p.o. BID 28 days, PG-D32 (D 38)",65 ± 23 mm3
same,Tumor volume post the final dosing (Mean ± SEM),"KMS-11 tumor; G3, 62.5 mg/kg p.o. BID 28 days, PG-D35 (D 41)",150 ± 60 mm3
same,Tumor volume post the final dosing (Mean ± SEM),"KMS-11 tumor; G3, 62.5 mg/kg p.o. BID 28 days, PG-D39 (D 45)",309 ± 108 mm3
same,Tumor Size at PG-Day 25 (Mean ± SEM),"KMS-11 tumor; G3, 62.5 mg/kg, p.o., BID × 28 days",115 ± 30 mm3
same,ΔT/ΔC,"KMS-11 tumor; G3, 62.5 mg/kg, p.o., BID × 28 days, PG-Day 25",0%
same,Tumor volume (Mean ± SEM),"KMS-11 tumor; G4, 125 mg/kg p.o. BID 18 days then BID(3D− 4D+) 7 days, PG-D1 (D 7)",117 ± 6 mm3
same,Tumor volume (Mean ± SEM),"KMS-11 tumor; G4, 125 mg/kg p.o. BID 18 days then BID(3D− 4D+) 7 days, PG-D4 (D 10)",191 ± 11 mm3
same,Tumor volume (Mean ± SEM),"KMS-11 tumor; G4, 125 mg/kg p.o. BID 18 days then BID(3D− 4D+) 7 days, PG-D7 (D 13)",219 ± 9 mm3
same,Tumor volume (Mean ± SEM),"KMS-11 tumor; G4, 125 mg/kg p.o. BID 18 days then BID(3D− 4D+) 7 days, PG-D11 (D 17)",196 ± 11 mm3
same,Tumor volume (Mean ± SEM),"KMS-11 tumor; G4, 125 mg/kg p.o. BID 18 days then BID(3D− 4D+) 7 days, PG-D14 (D 20)",119 ± 10 mm3
same,Tumor volume (Mean ± SEM),"KMS-11 tumor; G4, 125 mg/kg p.o. BID 18 days then BID(3D− 4D+) 7 days, PG-D18 (D 24)",99 ± 16 mm3
same,Tumor volume (Mean ± SEM),"KMS-11 tumor; G4, 125 mg/kg p.o. BID 18 days then BID(3D− 4D+) 7 days, PG-D21 (D 27)",85 ± 20 mm3
same,Tumor volume (Mean ± SEM),"KMS-11 tumor; G4, 125 mg/kg p.o. BID 18 days then BID(3D− 4D+) 7 days, PG-D25 (D 31)",131 ± 39 mm3
same,Tumor volume post the final dosing (Mean ± SEM),"KMS-11 tumor; G4, 125 mg/kg p.o. BID 18 days then BID(3D− 4D+) 7 days, PG-D28 (D 34)",99 ± 20 mm3
same,Tumor volume post the final dosing (Mean ± SEM),"KMS-11 tumor; G4, 125 mg/kg p.o. BID 18 days then BID(3D− 4D+) 7 days, PG-D32 (D 38)",239 ± 68 mm3
same,Tumor volume post the final dosing (Mean ± SEM),"KMS-11 tumor; G4, 125 mg/kg p.o. BID 18 days then BID(3D− 4D+) 7 days, PG-D35 (D 41)",421 ± 108 mm3
same,Tumor volume post the final dosing (Mean ± SEM),"KMS-11 tumor; G4, 125 mg/kg p.o. BID 18 days then BID(3D− 4D+) 7 days, PG-D39 (D 45)",757 ± 215 mm3
same,Tumor Size at PG-Day 25 (Mean ± SEM),"KMS-11 tumor; G4, 125 mg/kg, p.o., BID × 18 days, BID(3D− 4D+) × 7 days",131 ± 39 mm3
same,ΔT/ΔC,"KMS-11 tumor; G4, 125 mg/kg, p.o., BID × 18 days, BID(3D− 4D+) × 7 days, PG-Day 25",1%
same,Tumor volume (Mean ± SEM),"KMS-11 tumor; G5, 175 mg/kg p.o. BID 11 days then BID(3D− 4D+) 14 days, PG-D1 (D 7)",119 ± 6 mm3
same,Tumor volume (Mean ± SEM),"KMS-11 tumor; G5, 175 mg/kg p.o. BID 11 days then BID(3D− 4D+) 14 days, PG-D4 (D 10)",192 ± 13 mm3
same,Tumor volume (Mean ± SEM),"KMS-11 tumor; G5, 175 mg/kg p.o. BID 11 days then BID(3D− 4D+) 14 days, PG-D7 (D 13)",221 ± 17 mm3
same,Tumor volume (Mean ± SEM),"KMS-11 tumor; G5, 175 mg/kg p.o. BID 11 days then BID(3D− 4D+) 14 days, PG-D11 (D 17)",199 ± 24 mm3
same,Tumor volume (Mean ± SEM),"KMS-11 tumor; G5, 175 mg/kg p.o. BID 11 days then BID(3D− 4D+) 14 days, PG-D14 (D 20)",167 ± 27 mm3
same,Tumor volume (Mean ± SEM),"KMS-11 tumor; G5, 175 mg/kg p.o. BID 11 days then BID(3D− 4D+) 14 days, PG-D18 (D 24)",189 ± 32 mm3
same,Tumor volume (Mean ± SEM),"KMS-11 tumor; G5, 175 mg/kg p.o. BID 11 days then BID(3D− 4D+) 14 days, PG-D21 (D 27)",214 ± 45 mm3
same,Tumor volume (Mean ± SEM),"KMS-11 tumor; G5, 175 mg/kg p.o. BID 11 days then BID(3D− 4D+) 14 days, PG-D25 (D 31)",225 ± 45 mm3
same,Tumor volume post the final dosing (Mean ± SEM),"KMS-11 tumor; G5, 175 mg/kg p.o. BID 11 days then BID(3D− 4D+) 14 days, PG-D28 (D 34)",269 ± 146 mm3
same,Tumor volume post the final dosing (Mean ± SEM),"KMS-11 tumor; G5, 175 mg/kg p.o. BID 11 days then BID(3D− 4D+) 14 days, PG-D32 (D 38)",589 ± 378 mm3
same,Tumor volume post the final dosing (Mean ± SEM),"KMS-11 tumor; G5, 175 mg/kg p.o. BID 11 days then BID(3D− 4D+) 14 days, PG-D35 (D 41)",732 ± 422 mm3
same,Tumor volume post the final dosing (Mean ± SEM),"KMS-11 tumor; G5, 175 mg/kg p.o. BID 11 days then BID(3D− 4D+) 14 days, PG-D39 (D 45)",1183 ± 686 mm3
same,Tumor Size at PG-Day 25 (Mean ± SEM),"KMS-11 tumor; G5, 175 mg/kg, p.o., BID × 18 days, BID(3D− 4D+) × 14 days",225 ± 45 mm3
same,ΔT/ΔC,"KMS-11 tumor; G5, 175 mg/kg, p.o., BID × 18 days, BID(3D− 4D+) × 14 days, PG-Day 25",4%
